According to patent publication US20260085034A1, “N-(BENZHYDRYL)CYCLOALKYLCARBOXAMIDE DERIVATIVES AS INHIBITORS OF GLYCOGEN SYNTHASE 1 (GYS1) AND METHODS OF USE THEREOF” (Maze Therapeutics, Inc., priority 2022, published 2026):

Experiments:
[1] = tested on: glycogen synthesis in HeLa cells (hGYS1); assay: GYS1 cell based assay (glycogen digestion, Glucose-glo); settings: Homo sapiens, 24 h incubation, 20 mM glucose, geometric mean of at least 2 runs, read-out: Cellular IC50
From the text: The GYS1 cell based assay is a bioluminescent assay that quantifies the glucose resulting from glycogen digestion; the quantified glucose is an indirect measure of GYS1 glycogen synthesis. Newly synthesized glycogen is digested using Glucoamylase; the resulting glucose is quantified by using the Glucose-glo assay kit from Promega. Glucose-glo works by coupling glucose oxidation and NADH production with a bioluminescent system that is activated with NADH. Glucose is oxidized by Glucose dehydrogenase and the reaction reduces NAD+ to NADH; NADH activates Reductase which reduces a pro-luciferin Reductase Substrate to luciferin. Luciferin is detected in a luciferase reaction using Ultra-Glo rLuciferase and ATP, and the luminesce produced is proportional to the glucose in the sample. The luminescence is measured as a single point read in a plate reader.
Compounds that inhibit the hGYS1 enzyme and, subsequently, the glycogen synthesis in cells, were tested using assay ready plates (white, clear bottom 384 well plates) in a final DMSO reaction volume of 1% DMSO. Compounds in the assay ready plates were mixed with media with no additives, except for 20 mM glucose prior to cell addition. HeLa cells were starved in media with no additives, except for 1× Glutamax for 24 h. Starved HeLa cells were plated, in a 1:1 ratio to the media in the assay ready plate and incubated for 24 h at 37° C. and 5% CO2. Cells were washed in 1×PBS buffer and lysed in lysis buffer containing 50% 1×PBS and 25% 0.3 N HCl of the final volume in the well or reaction volume; cells were incubated with lysis buffer for 10 minutes and quenched with the remaining 25% of the reaction volume that consisted of 450 mM Tris pH 8.0. Lysates were mixed in a 1:1 ratio with Glucoamylase in 100 mM Sodium Acetate buffer, pH 5.3; the mixture was incubated for 1 h at 37° C. The digested lysate was mixed in a 1:1 ratio with Glucose-glo detection mixture as per vendor recommendations (Luciferase detection buffer, Reductase, Reductase substrate, Glucose dehydrogenase, and NAD) in read-out plates (solid white 384-well plates) and incubated for 1 h at RT. The plates were read using a plate reader with luminescence capabilities. Each compound concentration Relative Luminescence Unit (RLU) was averaged and normalized to the average RLU of the positive and negative controls to obtain a percentage inhibition. The normalized data vs. concentration was plotted; to determine the half-maximal concentration (IC50), the Levenberg-Marquardt algorithm was used to fit a Hill equation to the dose response data.
(§1) The results are shown in Table 4 below, which reports the IC50 of each compound. Unless otherwise specified, IC50 values are reported as the geometric mean of at least 2 assay runs on separate days. As shown in the table below, the compounds of the present invention are potent inhibitors of human GYS1. Unless otherwise specified, IC50 values are reported as the geometric mean of at least two assay runs on separate days. Each run represents the average of a technical replicate, where each compound was assayed twice in the same plate.

[2] = target: T1, recombinant hGYS1/GN1 protein (Homo sapiens, UniProt P13807); assay: GYS1 coupled enzyme assay (PK/LDH); format: biochemical; settings: geometric mean of at least 2 assay runs; NADH absorbance at 340 nm
T1 sequence (P13807 1-737): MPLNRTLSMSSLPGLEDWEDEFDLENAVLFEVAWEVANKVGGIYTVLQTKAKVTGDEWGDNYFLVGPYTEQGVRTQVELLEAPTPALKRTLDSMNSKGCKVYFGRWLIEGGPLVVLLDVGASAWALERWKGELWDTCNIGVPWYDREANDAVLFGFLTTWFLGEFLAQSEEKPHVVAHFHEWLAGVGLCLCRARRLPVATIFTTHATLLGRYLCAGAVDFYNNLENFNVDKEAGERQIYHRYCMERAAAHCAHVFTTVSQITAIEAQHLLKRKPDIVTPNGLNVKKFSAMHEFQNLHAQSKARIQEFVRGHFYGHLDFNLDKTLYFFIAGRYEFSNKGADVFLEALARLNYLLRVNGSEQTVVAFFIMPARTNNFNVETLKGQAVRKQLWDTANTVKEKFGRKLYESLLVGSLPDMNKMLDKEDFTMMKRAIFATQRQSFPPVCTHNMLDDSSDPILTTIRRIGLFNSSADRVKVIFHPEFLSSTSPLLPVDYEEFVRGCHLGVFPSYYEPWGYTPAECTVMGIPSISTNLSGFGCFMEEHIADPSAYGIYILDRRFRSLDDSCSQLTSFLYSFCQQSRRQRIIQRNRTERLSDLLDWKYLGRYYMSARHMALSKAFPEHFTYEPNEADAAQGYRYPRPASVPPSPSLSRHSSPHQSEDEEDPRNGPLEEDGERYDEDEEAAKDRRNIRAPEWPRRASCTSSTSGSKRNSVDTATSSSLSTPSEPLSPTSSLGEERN
T1 sequence (P46976 1-350 partner): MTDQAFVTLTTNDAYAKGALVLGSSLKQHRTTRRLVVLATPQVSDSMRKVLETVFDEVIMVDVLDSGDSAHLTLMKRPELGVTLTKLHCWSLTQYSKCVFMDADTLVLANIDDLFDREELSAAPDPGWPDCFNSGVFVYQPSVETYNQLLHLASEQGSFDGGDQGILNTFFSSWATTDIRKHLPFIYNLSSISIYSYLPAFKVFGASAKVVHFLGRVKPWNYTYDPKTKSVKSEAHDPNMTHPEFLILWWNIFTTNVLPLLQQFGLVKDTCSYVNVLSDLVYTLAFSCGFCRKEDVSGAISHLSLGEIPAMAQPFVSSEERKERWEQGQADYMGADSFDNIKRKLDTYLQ
Procedure, shortened: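 Recombinant hGYS1/GN1 (50 nM) with 0.8 mM UDP-glucose, 0.2% glycogen and 1 mM glucose-6-phosphate in Tris pH 7.5, 2.5% DMSO. UDP formation coupled via PK/LDH to NADH oxidation, read at 340 nm over 10 min. Control-normalized slopes fit to Hill equation; IC50 as geometric mean of ≥2 runs.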

[3] = target: T2, recombinant hGYS2/GN1 protein (Homo sapiens, UniProt P54840); assay: GYS2 coupled enzyme assay (PK/LDH); format: biochemical; settings: geometric mean of at least 2 assay runs; NADH absorbance at 340 nm
T2 sequence (P54840 1-703): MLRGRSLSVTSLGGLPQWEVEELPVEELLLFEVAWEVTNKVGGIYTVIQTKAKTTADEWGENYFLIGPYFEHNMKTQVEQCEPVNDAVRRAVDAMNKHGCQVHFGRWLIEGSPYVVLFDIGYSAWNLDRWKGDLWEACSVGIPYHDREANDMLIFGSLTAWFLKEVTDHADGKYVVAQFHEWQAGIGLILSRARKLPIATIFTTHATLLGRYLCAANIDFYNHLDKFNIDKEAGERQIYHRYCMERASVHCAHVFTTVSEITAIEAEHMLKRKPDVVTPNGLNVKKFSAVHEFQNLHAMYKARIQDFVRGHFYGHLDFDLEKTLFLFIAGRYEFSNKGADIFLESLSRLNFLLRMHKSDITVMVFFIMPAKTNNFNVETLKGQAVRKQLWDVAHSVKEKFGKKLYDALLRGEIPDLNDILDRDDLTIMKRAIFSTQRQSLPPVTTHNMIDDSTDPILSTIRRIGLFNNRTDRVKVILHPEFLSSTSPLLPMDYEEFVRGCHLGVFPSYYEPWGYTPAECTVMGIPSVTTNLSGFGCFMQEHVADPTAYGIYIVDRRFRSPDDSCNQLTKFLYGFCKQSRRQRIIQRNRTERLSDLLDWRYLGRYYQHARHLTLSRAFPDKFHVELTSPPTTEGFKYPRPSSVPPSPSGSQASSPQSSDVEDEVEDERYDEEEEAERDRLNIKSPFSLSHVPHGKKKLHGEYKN
T2 sequence (P46976 1-350 partner): T1 sequence (P46976 1-350 partner)
From the text: The GYS2 coupled enzyme assay is a kinetic biochemical assay that indirectly quantifies the rate of glycogen synthesis by coupling the conversion of GYS2 substrate UDP-glucose into UDP with downstream enzymatic reactions. UDP is released from UDP-glucose as glucose monomers are linked into the growing glycogen strand by GYS2. The coupled assay then proceeds with pyruvate kinase utilizing UDP and phospho(enol)pyruvate (PEP) to form pyruvate. Lactate dehydrogenase then converts pyruvate and NADH into lactate and NAD+. Oxidation of NADH to NAD+ can be measured continuously with a plate reader by quantifying the decrease in NADH absorbance at 340 nm over time.
Compounds that inhibit the hGYS2 enzyme and, subsequently, the downstream conversion of NADH to NAD+, were tested using assay ready plates (black, clear bottom 384 well plates) in a final DMSO reaction volume of 2.5% DMSO. The Assay Buffer contained 50 mM Tris pH 7.5, 2 mM MgCl2, and 100 mM KCl. Fresh stocks of BSA at a final concentration of 0.02% and TCEP 1 mM were added before splitting buffer into hGYS2 buffer and substrate buffer. To the hGYS2 buffer, rabbit liver glycogen was added at a final concentration of 0.2% glycogen. Glucose-6-Phosphate was added at 2 mM, recombinant hGYS2/GN1 protein was added at 200 nM to the substrate buffer, phosphoenolpyruvate (PEP) was added at 2 mM, UDP-Glucose was added at 2 mM, NADH was added at 0.6 mM, and Pyruvate Kinase/Lactate Dehydrogenase was added at 20 units/mL. The reaction was initiated by mixing hGYS2 buffer and substrate buffer at a 1:1 ratio. Both buffers were plated using a liquid dispensing device with hGYS2 buffer plated first followed by the substrate buffer. Plates were spun briefly to eliminate air bubbles and are immediately read in continuous mode at an absorbance of 340 nm, for 10 time points in one-minute increments, for a total of 10 minutes. The slope from these 10 time points was normalized to the positive and negative control wells. The duplicate % inhibition values are then averaged and fit to a Hill equation for dose response according to the Levenberg-Marquardt algorithm with the Hill equation maximum set to 100 and the minimum set to 0.
as §1, with “in Table 5 below, which” for “in Table 4 below, which”, “invention are not potent inhibitors” for “invention are potent inhibitors”, “of human GYS2.[…]” for “of human GYS1. Unless otherwise”

| Structure (SMILES) | IC50 [1] | IC50 [2] | IC50 [3] |
| --- | --- | --- | --- |
| CC(C)c1ccc([C@@H](NC(=O)C2CC2)c2ccccc2NC(=O)C2COC2)cc1 [compound 60, (R)-N-(2-(cyclopropanecarboxamido(4-isopropylphenyl)methyl)phenyl)oxetane-3-carboxamide] |  | 521 nM | > 100 µM |
| CC(C)c1ccc([C@@H](NC(=O)C2CC2)c2cccc(O)c2)cc1 [compound 62, (R)-N-((3-hydroxyphenyl)(4-isopropylphenyl)methyl)cyclopropanecarboxamide] |  | 376 nM | > 100 µM |
| COc1cccc([C@H](NC(=O)C2CC2)c2ccc(C(C)C)cc2)c1C [compound 63, (R)-N-((4-isopropylphenyl)(3-methoxy-2-methylphenyl)methyl)cyclopropanecarboxamide] |  | 1430 nM | > 100 µM |
| CC(C)c1ccc([C@@H](NC(=O)C2CC2)c2ccccc2O)cc1 [compound 67, (R)-N-((2-hydroxyphenyl)(4-isopropylphenyl)methyl)cyclopropanecarboxamide] |  | 293 nM | > 100 µM |
| CC(C)c1ccc([C@@H](NC(=O)C2CC2)c2ccc(O)cc2)cc1 [compound 68, (R)-N-((4-hydroxyphenyl)(4-isopropylphenyl)methyl)cyclopropanecarboxamide] |  | 663 nM | > 97.4 µM |
| COc1cccc([C@H](NC(=O)C2CC2)c2ccc(C(C)C)cc2)c1 [compound 70, (R)-N-((4-isopropylphenyl)(3-methoxyphenyl)methyl)cyclopropanecarboxamide] |  | 786 nM | > 100 µM |
| COc1ccc([C@H](NC(=O)C2CC2)c2ccc(C(C)C)cc2)cc1 [compound 72, (R)-N-((4-isopropylphenyl)(4-methoxyphenyl)methyl)cyclopropanecarboxamide] |  | 2680 nM | > 100 µM |
| CC(C)c1ccc([C@@H](NC(=O)C2CC2)c2ccccc2)cc1 [compound 73, (S)-N-((4-isopropylphenyl)(phenyl)methyl)cyclopropanecarboxamide] |  | 706 nM | > 100 µM |

Now from value to compound:

| IC50 [1] | IC50 [2] | IC50 [3] | Structure (SMILES) |
| --- | --- | --- | --- |
| 1510 nM | 55 nM |  | CC(C)c1ccc([C@@H](NC(=O)[C@H]2C[C@@H]2F)c2ccc3cn[nH]c3c2)nc1F (single isomer, unassigned) [compound 3] |
| 2790 nM | 156 nM |  | CC(C)c1ccc([C@@H](NC(=O)[C@H]2C[C@@H]2F)c2cccc(-c3ccn[nH]3)c2)nc1F (single isomer, unassigned) [compound 4] |
| 1060 nM | 131 nM |  | CC(C)c1ccc([C@@H](NC(=O)[C@H]2C[C@@H]2F)c2cccc3[nH]c(=O)[nH]c23)cc1F (single isomer, unassigned) [compound 5] |
| 6520 nM | 1140 nM |  | O=C(N[C@@H](c1ccccc1)c1ccc(C2CC2)c(F)n1)[C@H]1C[C@@H]1F [compound 2, (1R,2S)-N-((S)-(5-cyclopropyl-6-fluoropyridin-2-yl)(phenyl)methyl)-2-fluorocyclopropane-1-carboxamide] |
